Legend:
[1] = test system: Pseudoperonospora cubensis; test: Fungicidal activity against Pseudoperonospora cubensis at 50 mg/L relative to untreated control; format: functional
[2] = test system: Pseudoperonospora cubensis; test: Fungicidal activity against Pseudoperonospora cubensis at 6.25 mg/L relative to untreated control; format: functional
[3] = test system: Pseudoperonospora cubensis; test: Fungicidal activity against Pseudoperonospora cubensis at 200 mg/L relative to untreated control; format: functional
[4] = test system: Pseudoperonospora cubensis; test: Fungicidal activity against Pseudoperonospora cubensis at 100 mg/L relative to untreated control; format: functional
[5] = test system: Pseudoperonospora cubensis; test: Fungicidal activity against Pseudoperonospora cubensis at 25 mg/L relative to untreated control; format: functional
[6] = test system: Cytospora; test: Fungicidal activity against Cytospora mandshurica Miura under green house condition in presence of 98% compound; format: functional, organism-based
[7] = test system: Cytospora; test: Fungicidal activity against Cytospora mandshurica Miura at 1000 mg/L of 25% compound under field trials condition relative to untreated control; format: functional
[8] = test system: Cytospora; test: Fungicidal activity against Cytospora mandshurica Miura under green house condition in presence of 96% compound; format: functional, organism-based
[9] = test system: Cytospora; test: Fungicidal activity against Cytospora mandshurica Miura under green house condition in presence of 20% compound; format: functional, organism-based
[10] = test system: Cytospora; test: Fungicidal activity against Cytospora mandshurica Miura at 500 mg/L of 20% compound under field trials conditions relative to untreated control; format: functional
[11] = test system: Cytospora; test: Fungicidal activity against Cytospora mandshurica Miura at 1000 mg/L of 20% compound under field trials condition relative to untreated control; format: functional

SMILES | Activity [1] | Activity [2] | Activity [3] | Activity [4] | Activity [5] | EC50 [6] | Efficacy [7] | EC50 [8] | EC50 [9] | Efficacy [10] | Efficacy [11]
CO/C=C(/C(=O)OC)c1ccccc1COc1ccc2ccc(=O)oc2c1 | 70% | 0% | 100% | 100% | 50% |  |  |  |  |  | 
CO/C=C(/C(=O)OC)c1ccccc1COc1ccc2c(C)cc(=O)oc2c1 | 100% | 45% | 100% | 100% | 97% |  |  |  |  |  | 
CCc1cc(=O)oc2cc(OCc3ccccc3/C(=C\OC)C(=O)OC)ccc12 | 100% | 50% | 100% | 100% | 100% |  |  |  |  |  | 
CCCc1cc(=O)oc2cc(OCc3ccccc3/C(=C\OC)C(=O)OC)ccc12 | 100% | 55% | 100% | 100% | 95% |  |  |  |  |  | 
CO/C=C(/C(=O)OC)c1ccccc1COc1ccc2c(C(C)C)cc(=O)oc2c1 | 100% | 50% | 100% | 100% | 95% |  |  |  |  |  | 
CO/C=C(/C(=O)OC)c1ccccc1COc1ccc2c(C(F)(F)F)cc(=O)oc2c1 | 80% | 50% | 100% | 95% | 70% |  |  |  |  |  | 
CO/C=C(/C(=O)OC)c1ccccc1COc1ccc2c(-c3ccccc3)cc(=O)oc2c1 | 80% | 50% | 100% | 100% | 60% |  |  |  |  |  | 
CO/C=C(/C(=O)OC)c1ccccc1COc1ccc2c(-c3ccc(Cl)cc3)cc(=O)oc2c1 |  |  | 70% |  |  |  |  |  |  |  | 
CO/C=C(/C(=O)OC)c1ccccc1COc1ccc2c(-c3ccc(C(F)(F)F)cc3)cc(=O)oc2c1 |  |  | 85% | 70% |  |  |  |  |  |  | 
CO/C=C(/C(=O)OC)c1ccccc1COc1ccc2c(-c3ccc(Cl)nc3)cc(=O)oc2c1 | 75% | 0% | 90% | 80% | 40% |  |  |  |  |  | 
CO/C=C(/C(=O)OC)c1ccccc1COc1ccc2c(C)c(C)c(=O)oc2c1 | 100% | 85% | 100% | 100% | 100% |  |  |  |  |  | 
CCc1c(C)c2ccc(OCc3ccccc3/C(=C\OC)C(=O)OC)cc2oc1=O | 80% | 0% | 100% | 100% | 20% |  |  |  |  |  | 
CCCc1c(C)c2ccc(OCc3ccccc3/C(=C\OC)C(=O)OC)cc2oc1=O | 30% | 0% | 100% | 80% | 20% |  |  |  |  |  | 
CCCCCCc1c(C)c2ccc(OCc3ccccc3/C(=C\OC)C(=O)OC)cc2oc1=O | 100% | 80% | 100% | 100% | 100% |  |  |  |  |  | 
CO/C=C(/C(=O)OC)c1ccccc1COc1ccc2c(C)c(Cl)c(=O)oc2c1 | 100% | 75% | 100% | 100% | 100% |  |  |  |  |  | 
CO/C=C(/C(=O)OC)c1ccccc1COc1ccc2c(C)c(F)c(=O)oc2c1 | 100% | 60% | 100% | 100% | 95% |  |  |  |  |  | 
CO/C=C(/C(=O)OC)c1ccccc1COc1ccc2c3c(c(=O)oc2c1)CCC3 |  | 40% |  |  | 100% |  |  |  |  |  | 
CO/C=C(/C(=O)OC)c1ccccc1COc1ccc2c3c(c(=O)oc2c1)CCCC3 |  | 75% |  |  | 100% |  |  |  |  |  | 
CO/C=C(/C(=O)OC)c1ccccc1COc1ccc2c3c(c(=O)oc2c1C)CCC3 |  |  | 0% |  |  |  |  |  |  |  | 
CO/C=C(/C(=O)OC)c1ccccc1COc1ccc2c3c(c(=O)oc2c1C)CCCC3 |  |  | 50% |  |  |  |  |  |  |  | 

SMILES | Activity [1] | Activity [2] | Activity [3] | Activity [4] | Activity [5] | EC50 [6] | Efficacy [7] | EC50 [8] | EC50 [9] | Efficacy [10] | Efficacy [11]
CO/C=C(/C(=O)OC)c1ccccc1COc1ccc2c(-c3ccccc3)cc(=O)oc2c1C | 90% | 30% | 95% | 90% | 50% |  |  |  |  |  | 
CO/C=C(/C(=O)OC)c1ccccc1COc1ccc2c(C)cc(=O)oc2c1C(C)=O |  |  | 60% |  |  |  |  |  |  |  | 
CO/C=C(/C(=O)OC)c1ccccc1COc1ccc2c(C)cc(=O)oc2c1/C(C)=N/OC |  |  | 30% |  |  |  |  |  |  |  | 
CO/C=C(/C(=O)OC)c1ccccc1COc1cc2oc(=O)cc(C)c2cc1C(C)=O | 80% | 0% | 90% | 85% | 50% |  |  |  |  |  | 
CO/C=C(/C(=O)OC)c1ccccc1COc1cc2oc(=O)cc(C)c2cc1/C(C)=N\OC |  |  | 80% |  |  |  |  |  |  |  | 
CO/N=C(/C(=O)OC)c1ccccc1COc1ccc2c(C)c(Cl)c(=O)oc2c1 | 90% | 65% | 100% | 100% | 85% |  |  |  |  |  | 
CO/N=C(/C(=O)OC)c1ccccc1COc1ccc2c(C)c(C)c(=O)oc2c1C | 60% | 40% | 95% | 85% | 50% |  |  |  |  |  | 
CNC(=O)/C(=N/OC)c1ccccc1COc1ccc2c(C)c(C)c(=O)oc2c1C | 30% | 0% | 95% | 85% | 20% |  |  |  |  |  | 
COC(=O)N(OC)c1ccccc1COc1ccc2c(C)c(C)c(=O)oc2c1 | 100% | 65% | 100% | 100% | 85% |  |  |  |  |  | 
CCCCc1c(C)c2ccc(OCc3ccccc3N(OC)C(=O)OC)cc2oc1=O | 90% | 50% | 100% | 100% | 75% |  |  |  |  |  | 
COC(=O)N(OC)c1ccccc1COc1ccc2c(C)c(C)c(=O)oc2c1C | 75% | 0% | 90% | 80% | 50% |  |  |  |  |  | 
CO/C=C(/C(=O)OC)c1ccccc1COc1cc(=O)oc2ccccc12 | 30% | 0% | 85% | 70% | 0% |  |  |  |  |  | 
CO/C=C(/C(=O)OC)c1ccccc1COc1ccc2oc(=O)cc(C)c2c1 | 30% | 0% | 85% | 60% | 0% |  |  |  |  |  | 
CO/C=C(/C(=O)OC)c1ccccc1COc1ccc2oc(=O)c(C)c(C)c2c1 |  |  | 70% |  |  |  |  |  |  |  | 
CO/C=C(/C(=O)OC)c1ccccc1COc1cccc2c(C)c(C)c(=O)oc12 |  |  | 0% |  |  |  |  |  |  |  | 
CO/C=C(/C(=O)OC)c1ccccc1Oc1cc(Oc2ccccc2C#N)ncn1 [AZOXYSTROBIN] |  | 95% |  |  | 100% | 2.78 µg/mL | 73.5% |  |  |  | 
CCCCc1c(C)c2ccc(OCc3ccccc3/C(=C\OC)C(=O)OC)cc2oc1=O [Coumoxystrobin] | 100% | 95% | 100% | 100% | 100% |  |  | 1.83 µg/mL | 1.72 µg/mL | 88.5% | 97.3%
CO/N=C(/C(=O)OC)c1ccccc1COc1ccccc1C [KRESOXIM-METHYL] |  | 0% |  |  | 35% |  |  |  |  |  | 
CO/C=C(/C(=O)OC)c1ccccc1COc1cccc(C(F)(F)F)n1 [PICOXYSTROBIN] |  | 50% |  |  | 95% |  |  |  |  |  | 

Source: ChEMBL document CHEMBL3045982, “Design, synthesis and structure-activity relationship of novel coumarin derivatives” (Pest Manag Sci, 2011)
